We go through seven compounds from patent US7253295B2, “Chloride channel opener” (Sucampo AG, priority 2001, dated 2007).

One test has as its system AS-HBE cells. The experiment in a line: Short-circuit current in AS-HBE cells (Test Example 3). It is filed as cell-based, human. Particulars: 250 nM. The method, then:
AS-HBE is a human bronchial epithelial (HBE) cell line expressing the first 131 nucleotides of CFTR in the antisense direction (antisense CFTR 16HBE14o- cells, HBE-AS; also called AS-HBE). As a result, AS-HBE cells lack CFTR transcripts and lack functional CFTR. However, AS-HBE cells do express functional ClC-2 in a manner identical to the parental cell line, 16HBE14o- cells, from which they were derived. AS-HBE cells were maintained at 37° C. in 5%/95% CO2/O2 in Minimal Essential Medium (MEM; GIBCO/Invitrogen, Carlsbad, Calif.) supplemented with Earl's salt, L-glutamine (GIBCO/Invitrogen), 10% heat-inactivated fetal bovine serum, 100 units/ml penicillin, 100 μg/ml streptomycin sulfate and 400 μg/ml G-418 (GIBCO/Invitrogen). The cells were grown in air-liquid interface on Biocoat inserts (Fisher Scientific, Chicago, Ill.), coated with human plasma fibronectine (GIBCO/Invitrogen) and vitrogen (Cohesion Technologies, Palo Alto, Calif.).
According to the same manner as described in Example 2, Short-circuit current measurements in the AS-HBE cells were carried out. Changes in short-circuit current (ΔIsc) were normalized to the filter area (0.3 cm^2) and reported as ΔIsc/cm^2.
Test compounds were used at a final concentration of 250 nM.
For the compound `CCCCC(F)(F)C1(O)CC[C@H]2[C@@H](CC(=O)[C@@H]2CCCCCCC(=O)NCC)O1` (stereo partly drawn) [Compound 3, N1-ethyl-7-[(2,4aR,5R,7aR)-2-(1,1-difluoropentyl)-2-hydroxy-6-oxoperhydrocyclopenta[b]pyran-5-yl]heptanamide], the “Changes in short-circuit currents (Δlsc)” value is listed as 2.7 μA/cm^2. The same measure, in the same setting: the figure for `CCCCC(F)(F)C(=O)/C=C/[C@H]1[C@H](O)CC(=O)[C@@H]1CCCCCCC(=O)O` [Compound 4, 15-keto-16,16-difluoro-PGE1] is 1.0 μA/cm^2; for `CCCCCCC(F)(F)C1(O)CC[C@H]2[C@@H](CC(=O)[C@@H]2CCCCCCCCC(=O)OC(C)C)O1` (stereo partly drawn) [Compound 5, Isopropyl (−)-9-[(4aR,5R,7aR)-2-(1,1-difluoroheptyl)-2-hydroxy-6-oxoperhydrocyclopenta[b]pyran-5-yl]nonanoate] it is 0.3 μA/cm^2; for `CCCCC[C@H](O)/C=C/[C@@H]1[C@@H](C/C=C\CCCC(=O)O)[C@@H](O)C[C@H]1O` [Compound 6, PGF2α, reference compound] it is 0.7 μA/cm^2. With `CCCCC[C@H](O)/C=C/[C@@H]1[C@H]2C/C(=C/CCCC(=O)[O-])O[C@H]2C[C@H]1O.[Na+]` [Compound 7, PGI2-Na, reference compound], the “Changes in short-circuit currents (Δlsc)” value was found to be 1.0 μA/cm^2.

A further test has as its target T1, recombinant human ClC-2 Chloride Channels (Homo sapiens, UniProt P51788).
T1 construct: His; T7; expressed in transfected cells; host or cells: HEK-293 (ATCC), pcDNA3.1, G-418 selected
T1 sequence (P51788 1-898): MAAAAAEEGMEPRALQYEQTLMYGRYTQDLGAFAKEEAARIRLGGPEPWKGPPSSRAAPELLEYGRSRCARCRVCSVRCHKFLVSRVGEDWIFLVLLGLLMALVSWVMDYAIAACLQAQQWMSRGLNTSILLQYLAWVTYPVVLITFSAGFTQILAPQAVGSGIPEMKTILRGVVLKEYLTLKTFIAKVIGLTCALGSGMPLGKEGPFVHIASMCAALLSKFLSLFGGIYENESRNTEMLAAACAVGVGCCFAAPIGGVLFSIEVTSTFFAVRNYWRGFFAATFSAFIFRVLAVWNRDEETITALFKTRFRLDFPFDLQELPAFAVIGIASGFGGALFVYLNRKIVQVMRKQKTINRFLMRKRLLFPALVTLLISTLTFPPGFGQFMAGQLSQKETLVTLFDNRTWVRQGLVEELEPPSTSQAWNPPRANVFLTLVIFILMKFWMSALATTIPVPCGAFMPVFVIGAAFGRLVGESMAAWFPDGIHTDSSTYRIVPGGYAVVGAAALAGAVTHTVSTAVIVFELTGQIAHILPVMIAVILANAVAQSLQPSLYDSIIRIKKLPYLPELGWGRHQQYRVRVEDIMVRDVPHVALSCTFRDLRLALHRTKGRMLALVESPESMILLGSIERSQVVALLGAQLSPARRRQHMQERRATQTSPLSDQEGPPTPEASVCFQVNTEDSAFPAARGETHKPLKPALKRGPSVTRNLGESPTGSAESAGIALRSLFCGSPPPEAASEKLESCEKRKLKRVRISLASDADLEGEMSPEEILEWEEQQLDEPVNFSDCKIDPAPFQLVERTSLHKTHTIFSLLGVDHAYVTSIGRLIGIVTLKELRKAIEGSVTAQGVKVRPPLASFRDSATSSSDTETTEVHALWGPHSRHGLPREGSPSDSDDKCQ
In words: Whole cell patch clamp, ClC-2 transfected HEK cells, current increase (Test Example 4). Particulars: 100 nM, change from control. It is filed as cell-based. Here is the method:
According to the same manner as described in Example 1, whole cell patch clamp measurements were carried out.
Test compounds were used at a final concentration of 100 nM.
`CCCCC(F)(F)C(O)CC[C@H]1[C@H](O)CC(=O)[C@@H]1CCCCCCC(=O)O` (stereo partly shown) [Compound 8, 13,14-dihydro-16,16-difluoro-PGE1]: the “Activation of ClC-2 channels ΔpA/pF” value is reported as 24.6 pA/pF. As to `CCCCC(F)(F)C1(O)CC[C@@H]2[C@@H](CCCCCCC(=O)NCC)[C@@H](O)C[C@H]2O1` (stereo partly drawn) [Compound 9, N1-ethyl-7-[(2,4aR,5R,6S,7aR)-2-(1,1-difluoropentyl)-2,6-dihydroxyperhydrocyclopenta[b]pyran-5-yl]heptanamide], the “Activation of ClC-2 channels ΔpA/pF” value is on record as 38.2 pA/pF.
